Data taken from ChEMBL document CHEMBL3232788, “1-(2-Hydroxy-2-methyl-3-phenoxypropanoyl)indoline-4-carbonitrile derivatives as potent and tissue selective androgen receptor modulators” (J Med Chem, 2014).
Converted amounts (≈) assume the structure as drawn. The source made the active and inactive calls. No cut-off for these calls is given here.

Experiments:
[1] = molecular target: T1, Androgen receptor (Homo sapiens, UniProt P10275); assay: Displacement of [3H]mibolerone from full length human AR expressed in COS cells after 3.5 hrs by liquid scintillation counting; assay type: cell-based
T1 sequence (P10275 whole entry): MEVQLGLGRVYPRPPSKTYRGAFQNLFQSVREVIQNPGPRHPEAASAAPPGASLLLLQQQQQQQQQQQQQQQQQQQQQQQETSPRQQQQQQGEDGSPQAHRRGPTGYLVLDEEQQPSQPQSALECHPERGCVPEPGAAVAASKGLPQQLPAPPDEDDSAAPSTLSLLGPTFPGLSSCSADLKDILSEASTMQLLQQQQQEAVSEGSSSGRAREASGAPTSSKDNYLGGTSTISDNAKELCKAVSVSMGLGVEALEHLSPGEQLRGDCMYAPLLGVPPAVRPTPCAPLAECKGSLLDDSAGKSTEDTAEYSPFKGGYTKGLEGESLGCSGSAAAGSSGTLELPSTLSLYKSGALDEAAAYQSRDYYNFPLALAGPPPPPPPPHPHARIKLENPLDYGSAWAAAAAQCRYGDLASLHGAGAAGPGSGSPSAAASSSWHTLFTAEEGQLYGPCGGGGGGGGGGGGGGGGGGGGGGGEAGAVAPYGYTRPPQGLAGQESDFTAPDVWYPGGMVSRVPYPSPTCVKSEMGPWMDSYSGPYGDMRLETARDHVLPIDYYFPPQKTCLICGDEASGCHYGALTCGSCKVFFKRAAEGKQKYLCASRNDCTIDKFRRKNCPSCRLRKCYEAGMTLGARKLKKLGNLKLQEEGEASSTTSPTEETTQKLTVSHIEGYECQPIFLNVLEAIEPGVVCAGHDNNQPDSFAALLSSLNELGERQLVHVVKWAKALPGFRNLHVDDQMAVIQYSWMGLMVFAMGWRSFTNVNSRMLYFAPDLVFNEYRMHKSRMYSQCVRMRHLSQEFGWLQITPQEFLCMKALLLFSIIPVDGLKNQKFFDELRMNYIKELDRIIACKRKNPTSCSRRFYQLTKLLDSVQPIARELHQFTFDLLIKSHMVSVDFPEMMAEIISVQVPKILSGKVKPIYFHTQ

[2] = molecular target: T1, Androgen receptor; assay: Agonist activity at human AR expressed in CV1 cells after 17 hrs by luciferase reporter gene assay; assay type: cell-based, CV-1
[3] = molecular target: T1, Androgen receptor; assay: Binding affinity to human AR NTD (1 to 561 aa) expressed in CV1 cells coexpressing human AR-LBD (644-919 aa) assessed as N/C-termini interaction by androgenic assay; assay type: cell-based, CV-1
[4] = Aqueous solubility of the compound at pH 6.5; assay type: physicochemical
[5] = Clearance in human liver microsomes; assay type: ADME; settings: read-out: CLH
[6] = Volume of distribution at steady state in Sprague-Dawley rat at 2 mg/kg, iv; assay type: ADME, organism-based; design: dose 2 mg/kg, route intravenous; settings: in vivo, read-out: Vdss
[7] = AUC in Sprague-Dawley rat at 2 mg/kg, iv; assay type: ADME, organism-based; design: dose 2 mg/kg, route intravenous; settings: plasma
[8] = Half life in Sprague-Dawley rat at 2 mg/kg, iv; assay type: ADME, organism-based; design: dose 2 mg/kg, route intravenous; settings: in vivo
[9] = Cmax in Sprague-Dawley rat at 10 mg/kg, sc; assay type: ADME, organism-based; design: dose 10 mg/kg, route subcutaneous; settings: in vivo
[10] = Tmax in Sprague-Dawley rat at 10 mg/kg, sc; assay type: ADME, organism-based; design: dose 10 mg/kg, route subcutaneous; settings: in vivo
[11] = AUC in Sprague-Dawley rat at 10 mg/kg, sc; assay type: ADME, organism-based; design: dose 10 mg/kg, route subcutaneous; settings: plasma
[12] = Half life in Sprague-Dawley rat at 10 mg/kg, sc; assay type: ADME, organism-based; design: dose 10 mg/kg, route subcutaneous; settings: in vivo
[13] = Bioavailability in Sprague-Dawley rat at 10 mg/kg, sc; assay type: ADME, organism-based; settings: in vivo
[14] = Cmax in Sprague-Dawley rat at 6 mg/kg, po; assay type: ADME, organism-based; design: dose 6 mg/kg, route oral; settings: in vivo
[15] = Tmax in Sprague-Dawley rat at 6 mg/kg, po; assay type: ADME, organism-based; design: dose 6 mg/kg, route oral; settings: in vivo
[16] = AUC in Sprague-Dawley rat at 6 mg/kg, po; assay type: ADME, organism-based; design: dose 6 mg/kg, route oral; settings: plasma
[17] = Half life in Sprague-Dawley rat at 6 mg/kg, po; assay type: ADME, organism-based; design: dose 6 mg/kg, route oral; settings: in vivo
[18] = Oral bioavailability in Sprague-Dawley rat at 6 mg/kg; assay type: ADME, organism-based; settings: in vivo
[19] = test system: Rattus norvegicus; assay: Increase in levator ani muscle weight in orchidectomized Sprague-Dawley rat at 3 to 30 mg/kg, sc qd for 4 days relative to vehicle-treated control; assay type: functional, organism-based
[20] = test system: Rattus norvegicus; assay: Increase in prostate tissue weight in orchidectomized Sprague-Dawley rat at 3 to 30 mg/kg, sc qd for 4 days relative to vehicle-treated control; assay type: ADME, organism-based, Prostate gland; design: dose 3-30 mg/kg, route subcutaneous; settings: in vivo, 96 h
[21] = test system: Rattus norvegicus; assay: Increase in seminal vesicle weight in orchidectomized Sprague-Dawley rat at 3 to 30 mg/kg, sc qd for 4 days relative to vehicle-treated control; assay type: ADME, organism-based; design: dose 3-30 mg/kg, route subcutaneous; settings: in vivo, 96 h
[22] = test system: Rattus norvegicus; assay: Toxicity in Sprague-Dawley rat assessed as effect on serum luteinizing hormone level at 3 to 10 mg/kg, sc qd for 14 days relative to vehicle-treated control; assay type: organism-based; design: dose 3-10 mg/kg, route subcutaneous; settings: in vivo, 336 h
[23] = test system: Rattus norvegicus; assay: Toxicity in Sprague-Dawley rat assessed as effect on serum luteinizing hormone level at 100 mg/kg, sc qd for 14 days relative to vehicle-treated control; assay type: organism-based; design: dose 100 mg/kg, route subcutaneous; settings: in vivo, 336 h
[24] = test system: Rattus norvegicus; assay: Toxicity in Sprague-Dawley rat assessed as effect on serum total cholesterol level at 3 to 100 mg/kg, sc qd for 14 days relative to vehicle-treated control; assay type: organism-based; design: dose 3-100 mg/kg, route subcutaneous; settings: in vivo, 336 h
[25] = test system: Rattus norvegicus; assay: Toxicity in Sprague-Dawley rat assessed as effect on serum HDL level at 3 to 100 mg/kg, sc qd for 14 days relative to vehicle-treated control; assay type: organism-based; design: dose 3-100 mg/kg, route subcutaneous; settings: in vivo, 336 h
[26] = test system: Rattus norvegicus; assay: Toxicity in Sprague-Dawley rat assessed as effect on serum LDL level at 3 to 100 mg/kg, sc qd for 14 days relative to vehicle-treated control; assay type: organism-based; design: dose 3-100 mg/kg, route subcutaneous; settings: in vivo, 336 h
[27] = test system: Rattus norvegicus; assay: Toxicity in Sprague-Dawley rat assessed as effect on serum triglyceride level at 3 to 100 mg/kg, sc qd for 14 days relative to vehicle-treated control; assay type: organism-based; design: dose 3-100 mg/kg, route subcutaneous; settings: in vivo, 336 h
[28] = molecular target: Voltage-gated inwardly rectifying potassium channel KCNH2 (Homo sapiens, UniProt Q12809); assay: Binding affinity to human ERG by dofetilide binding assay
[29] = Cytotoxicity against human THLE cells; assay type: cell-based
[30] = molecular target: T2, Cytochrome P450 1A2 (Homo sapiens, UniProt P05177); assay: Inhibition of CYP1A2 (unknown origin) at 3 uM; assay type: ADME
T2 sequence (P05177 whole entry): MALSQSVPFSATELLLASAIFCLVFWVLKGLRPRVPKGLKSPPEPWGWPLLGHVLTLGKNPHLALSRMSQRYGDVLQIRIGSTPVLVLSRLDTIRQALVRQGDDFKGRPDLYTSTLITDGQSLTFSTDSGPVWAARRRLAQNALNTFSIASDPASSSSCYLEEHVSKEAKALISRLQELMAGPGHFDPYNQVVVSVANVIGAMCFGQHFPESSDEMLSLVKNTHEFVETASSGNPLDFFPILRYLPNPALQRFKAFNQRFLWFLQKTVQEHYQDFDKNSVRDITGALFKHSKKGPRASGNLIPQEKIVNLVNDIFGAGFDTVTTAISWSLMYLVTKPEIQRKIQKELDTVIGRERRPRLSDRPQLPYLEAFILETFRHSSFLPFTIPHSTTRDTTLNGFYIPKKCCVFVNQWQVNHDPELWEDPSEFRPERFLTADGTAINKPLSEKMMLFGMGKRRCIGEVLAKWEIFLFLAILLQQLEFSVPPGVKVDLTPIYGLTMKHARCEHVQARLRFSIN

[31] = molecular target: T3, Cytochrome P450 2C8 (Homo sapiens, UniProt P10632); assay: Inhibition of CYP2C8 (unknown origin) at 3 uM; assay type: ADME
T3 sequence (P10632 whole entry): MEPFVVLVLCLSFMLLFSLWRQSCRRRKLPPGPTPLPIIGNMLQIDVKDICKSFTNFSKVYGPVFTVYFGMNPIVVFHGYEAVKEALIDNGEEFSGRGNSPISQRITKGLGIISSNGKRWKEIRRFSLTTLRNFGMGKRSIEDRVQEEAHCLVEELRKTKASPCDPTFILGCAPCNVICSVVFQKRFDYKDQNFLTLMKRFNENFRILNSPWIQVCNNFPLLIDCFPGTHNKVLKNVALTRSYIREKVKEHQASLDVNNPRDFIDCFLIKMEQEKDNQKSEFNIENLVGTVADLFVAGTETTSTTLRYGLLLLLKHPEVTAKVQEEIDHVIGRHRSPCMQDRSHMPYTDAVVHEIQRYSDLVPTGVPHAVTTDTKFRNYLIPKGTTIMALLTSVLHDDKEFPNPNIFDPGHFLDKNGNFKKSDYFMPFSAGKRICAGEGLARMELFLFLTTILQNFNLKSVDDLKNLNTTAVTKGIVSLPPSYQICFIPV

[32] = molecular target: Cytochrome P450 2C9 (Homo sapiens, UniProt P11712); assay: Inhibition of CYP2C9 (unknown origin) at 3 uM; assay type: ADME
[33] = molecular target: Cytochrome P450 2D6 (Homo sapiens, UniProt P10635); assay: Inhibition of CYP2D6 (unknown origin) at 3 uM; assay type: ADME
[34] = molecular target: Cytochrome P450 3A4 (Homo sapiens, UniProt P08684); assay: Inhibition of CYP3A4 (unknown origin) at 3 uM; assay type: ADME
[35] = Toxicity in sc dosed Sprague-Dawley rat administered qd for 14 days; assay type: organism-based; settings: in vivo

Chain of Voltage-gated inwardly rectifying potassium channel KCNH2 (Q12809 whole entry): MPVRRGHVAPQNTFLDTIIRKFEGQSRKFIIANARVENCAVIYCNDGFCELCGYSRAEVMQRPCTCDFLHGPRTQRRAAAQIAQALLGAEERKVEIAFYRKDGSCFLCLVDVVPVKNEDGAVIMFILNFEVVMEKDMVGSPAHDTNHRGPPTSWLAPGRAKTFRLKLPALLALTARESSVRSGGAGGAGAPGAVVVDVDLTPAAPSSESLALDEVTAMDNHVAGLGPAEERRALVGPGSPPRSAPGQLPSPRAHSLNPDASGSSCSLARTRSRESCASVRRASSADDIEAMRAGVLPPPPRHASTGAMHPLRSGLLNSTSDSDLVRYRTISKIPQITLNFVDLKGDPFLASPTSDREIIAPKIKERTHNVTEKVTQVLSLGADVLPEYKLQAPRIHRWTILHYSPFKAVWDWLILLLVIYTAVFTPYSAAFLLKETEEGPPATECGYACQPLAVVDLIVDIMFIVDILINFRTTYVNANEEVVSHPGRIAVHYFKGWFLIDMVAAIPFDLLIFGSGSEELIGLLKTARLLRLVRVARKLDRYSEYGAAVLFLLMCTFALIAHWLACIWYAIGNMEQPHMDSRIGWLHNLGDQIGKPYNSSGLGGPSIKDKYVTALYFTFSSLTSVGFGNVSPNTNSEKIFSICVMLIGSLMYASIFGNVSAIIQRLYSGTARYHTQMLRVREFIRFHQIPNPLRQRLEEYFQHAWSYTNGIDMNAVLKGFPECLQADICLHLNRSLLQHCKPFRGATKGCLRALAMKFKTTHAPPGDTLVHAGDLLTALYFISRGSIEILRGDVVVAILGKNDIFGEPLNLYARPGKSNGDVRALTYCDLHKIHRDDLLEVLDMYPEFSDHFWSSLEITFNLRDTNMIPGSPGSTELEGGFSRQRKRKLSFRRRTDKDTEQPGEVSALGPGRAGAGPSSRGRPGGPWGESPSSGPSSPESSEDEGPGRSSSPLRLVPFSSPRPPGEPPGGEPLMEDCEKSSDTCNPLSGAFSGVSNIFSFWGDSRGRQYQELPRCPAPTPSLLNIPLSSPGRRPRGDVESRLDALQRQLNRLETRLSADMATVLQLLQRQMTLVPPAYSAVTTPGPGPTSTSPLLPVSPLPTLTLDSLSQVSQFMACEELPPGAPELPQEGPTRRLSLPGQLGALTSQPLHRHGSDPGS
Chain of Cytochrome P450 3A4 (P08684 whole entry): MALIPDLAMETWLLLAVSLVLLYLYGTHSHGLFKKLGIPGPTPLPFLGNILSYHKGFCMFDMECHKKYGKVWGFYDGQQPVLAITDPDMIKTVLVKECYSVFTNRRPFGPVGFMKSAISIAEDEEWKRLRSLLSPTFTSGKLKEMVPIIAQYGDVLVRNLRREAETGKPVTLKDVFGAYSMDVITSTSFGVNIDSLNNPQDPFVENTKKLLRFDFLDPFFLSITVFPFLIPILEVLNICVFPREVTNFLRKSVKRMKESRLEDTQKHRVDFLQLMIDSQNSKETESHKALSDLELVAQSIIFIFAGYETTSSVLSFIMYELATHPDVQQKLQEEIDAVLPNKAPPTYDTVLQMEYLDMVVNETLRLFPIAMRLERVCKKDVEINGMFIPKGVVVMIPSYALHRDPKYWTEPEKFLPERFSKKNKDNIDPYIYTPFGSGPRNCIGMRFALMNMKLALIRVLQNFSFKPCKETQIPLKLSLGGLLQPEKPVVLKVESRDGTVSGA
Chain of Cytochrome P450 2C9 (P11712 whole entry): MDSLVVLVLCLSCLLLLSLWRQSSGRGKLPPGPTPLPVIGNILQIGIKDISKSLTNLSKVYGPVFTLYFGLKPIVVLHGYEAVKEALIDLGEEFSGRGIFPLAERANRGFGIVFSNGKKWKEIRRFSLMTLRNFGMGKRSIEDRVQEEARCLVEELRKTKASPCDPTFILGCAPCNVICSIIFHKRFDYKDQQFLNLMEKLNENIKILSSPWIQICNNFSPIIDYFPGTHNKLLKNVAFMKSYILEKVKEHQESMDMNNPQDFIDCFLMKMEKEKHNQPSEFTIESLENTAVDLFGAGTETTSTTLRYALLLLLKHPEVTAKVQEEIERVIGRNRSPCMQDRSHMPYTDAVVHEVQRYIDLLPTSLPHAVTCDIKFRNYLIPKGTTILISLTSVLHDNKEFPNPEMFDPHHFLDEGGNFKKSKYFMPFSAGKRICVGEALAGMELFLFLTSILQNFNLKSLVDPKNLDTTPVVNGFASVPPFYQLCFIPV
Chain of Cytochrome P450 2D6 (P10635 whole entry): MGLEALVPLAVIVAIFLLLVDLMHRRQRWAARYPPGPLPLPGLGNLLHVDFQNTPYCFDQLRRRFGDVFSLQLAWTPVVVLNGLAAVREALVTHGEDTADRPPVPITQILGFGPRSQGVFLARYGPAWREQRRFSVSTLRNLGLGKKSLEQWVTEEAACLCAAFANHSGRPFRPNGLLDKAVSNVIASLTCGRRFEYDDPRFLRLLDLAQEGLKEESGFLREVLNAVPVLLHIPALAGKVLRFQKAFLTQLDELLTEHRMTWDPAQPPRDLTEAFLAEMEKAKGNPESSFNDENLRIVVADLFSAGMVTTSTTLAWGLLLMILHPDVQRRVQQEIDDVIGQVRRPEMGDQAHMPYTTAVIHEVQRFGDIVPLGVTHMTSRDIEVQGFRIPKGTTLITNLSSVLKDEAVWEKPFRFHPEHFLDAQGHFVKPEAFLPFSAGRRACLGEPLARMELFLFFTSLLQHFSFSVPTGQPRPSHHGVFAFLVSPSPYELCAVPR

SMILES: C[C@](O)(COc1ccc(F)cc1)C(=O)N1CCc2c(C#N)cccc21
- IC50 [1]: 12.7 nM
- EC50 [2]: 2.5 nM
- EC50 [3]: > 10000 nM
- solubility [4]: 14 µM (≈ 4.76 µg/mL)
- microsomal CLint [5]: 21 µL/min/mg
- Vd [6]: 6 L/kg
- AUC [7]: 1100 ng·h/mL
- half-life [8]: 5 h
- Cmax [9]: 166 ng/mL
- Tmax [10]: 4 h
- AUC [11]: 2030 ng·h/mL
- half-life [12]: 6 h
- bioavailability [13]: 37%
- Cmax [14]: 254 ng/mL
- Tmax [15]: 8 h
- AUC [16]: 3750 ng·h/mL
- half-life [17]: 5 h
- bioavailability [18]: > 100%
- Activity [19]: Active
- Activity [20]: Non-toxic
- Activity [21]: Non-toxic
- Activity [22]: Non-toxic
- Activity [23]: Non-toxic
- Activity [24]: Non-toxic
- Activity [25]: Non-toxic
- Activity [26]: Non-toxic
- Activity [27]: Non-toxic
- IC50 [28]: > 100000 nM
- IC50 [29]: > 300000 nM
- inhibition (INH) [30]: Not Active
- inhibition (INH) [31]: Not Active
- inhibition (INH) [32]: Not Active
- inhibition (INH) [33]: Not Active
- inhibition (INH) [34]: Not Active
- MTD at 336 h [35]: 100 mg/kg
